Measured values as given in PubChem BioAssay (NCI).
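Where inhibition never reached the appropriate level, the endpoint shown equals the highest concentration tested. Otherwise, values were interpolated linearly from a five-concentration, 48-hour dose response in 96-well plates. Here, GI50 denotes the concentration required for 50% inhibition of growth. TGI denotes the concentration required for complete inhibition of growth.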

Legend:
Test in all cases: NCI-60 cell line screen, 48 h
786-0 renal = system: 786-0 renal
A549 NSCLC = system: A549 NSCLC
ACHN renal = system: ACHN renal
BT-549 breast = system: BT-549 breast
COLO 205 colon = system: COLO 205 colon
HCC-2998 colon = system: HCC-2998 colon
M14 melanoma = system: M14 melanoma
OVCAR-3 ovarian = system: OVCAR-3 ovarian
SK-MEL-2 melanoma = system: SK-MEL-2 melanoma
PC-3 prostate = system: PC-3 prostate

Compound | GI50 (786-0 renal) [µM] | TGI (786-0 renal) [µM] | GI50 (A549 NSCLC) [µM] | TGI (A549 NSCLC) [µM] | GI50 (ACHN renal) [µM] | TGI (ACHN renal) [µM] | GI50 (BT-549 breast) [µM] | TGI (BT-549 breast) [µM] | GI50 (COLO 205 colon) [µM] | TGI (COLO 205 colon) [µM] | GI50 (HCC-2998 colon) [µM] | TGI (HCC-2998 colon) [µM] | GI50 (M14 melanoma) [µM] | TGI (M14 melanoma) [µM] | GI50 (OVCAR-3 ovarian) [µM] | TGI (OVCAR-3 ovarian) [µM] | GI50 (SK-MEL-2 melanoma) [µM] | TGI (SK-MEL-2 melanoma) [µM] | GI50 (PC-3 prostate) [µM] | TGI (PC-3 prostate) [µM]
O=S(=O)(NC1=NCCN1C(=S)SN1CCn2c1nsc2=S)c1ccccc1Cl | 16.7 | 39.1 | 32.5 | > 100 | 24.5 | > 100 | 8 | 36 | 15.1 | 55 | 15.9 | 29.5 | 12.8 | 27.1 | 3.89 | 17.7 | 16.9 | 40 | – | –
NCc1c(C(N)=O)ncn1Cc1ccccc1 | – | > 100 | – | > 100 | – | > 100 | – | – | – | > 100 | – | > 100 | – | > 100 | – | > 100 | – | – | – | –
CCOC(=O)C(C)(C)Oc1ccc2c(-c3ccc(Cl)cc3)c(-c3ccc(Cl)cc3)c(=O)oc2c1 | – | > 100 | – | > 100 | – | > 100 | – | – | – | > 100 | – | > 100 | – | > 100 | – | > 100 | – | > 100 | – | –
CCN(CC)CCn1c2ccc(OC)cc2c2sc3cc(OC)ccc3c(=O)c21 | 1.59 | 3.23 | 1.59 | 5.71 | 1 | 2.77 | 2.24 | 5.95 | 1.39 | 3.32 | 1.48 | 3.14 | 1.64 | 3.08 | 2.12 | 4.54 | 2.1 | 4.68 | – | –
CC(=O)[O-].[Zn].c1ccc(/C(=N\Nc2ccccn2)c2ccccn2)cc1 | 0.366 | 2.16 | 0.447 | 5.48 | 0.0241 | 5.03 | – | – | – | – | – | 2.07 | 0.0468 | 1.43 | – | – | – | 10.6 | – | –
COc1nc2c(nc(N)n2C2OCC(O)C(O)C2O)c(=O)n1C (stereo not drawn) | – | > 100 | – | > 100 | – | > 100 | – | – | – | > 100 | – | > 100 | – | > 100 | – | > 100 | – | – | – | –
COc1ccc2c(c1)c(-c1ccc(-c3cn(C)c4ccc(OC)cc34)[nH]1)cn2C | 12.2 | 36.1 | 4.04 | 17.6 | 1.91 | 3.54 | 2.09 | 5.3 | 1.92 | 4.74 | – | – | 3.97 | 20.3 | – | – | 4 | 22.2 | 1.58 | 5.71
CCOC(=O)N1C(c2ccccc2)C=CC(c2ccccc2)N1C(=O)OCC (stereo not drawn) | – | > 100 | – | > 100 | – | > 100 | – | – | – | > 100 | – | – | – | – | – | > 100 | – | > 100 | – | –
CS/C(c1ccccc1)=[N+](\[O-])Cc1ccccc1 | – | > 100 | – | > 100 | – | > 100 | – | – | – | > 100 | – | > 100 | – | > 100 | – | > 100 | – | > 100 | – | –
COc1cc(/C=C\c2ccc(Br)cc2)cc(OC)c1OC | – | 13.7 | – | > 100 | – | > 100 | – | – | – | 1.21 | 0.0192 | 26.8 | – | – | – | – | – | > 100 | – | –
Nc1ccc(C(OC(=O)c2cc3ccccc3c(Cc3c(O)c(C(=O)OC(c4ccc(N)cc4)(c4ccc(N)cc4)c4ccc(N)cc4)cc4ccccc34)c2O)(c2ccc(N)cc2)c2ccc(N)cc2)cc1 | 1.76 | 20.2 | 0.774 | 21.7 | 2.49 | 54 | – | – | 1.21 | 3.15 | 1.83 | 15.5 | 0.993 | 19.1 | 1.25 | 3.76 | 1.4 | 4.55 | 1.22 | 20.4
Cc1ccc(C2=C(c3ccc(C)cc3)C(c3ccc(C)cc3)=C(c3ccc(C)cc3)C2=O)cc1 | – | > 100 | – | > 100 | – | > 100 | – | – | – | – | – | – | – | > 100 | – | – | – | > 100 | – | –
CCn1c(=O)c2ccccc2n2c(=O)c3cc4ccccc4cc3nc12 | – | > 100 | – | > 100 | – | > 100 | – | – | – | > 100 | – | > 100 | – | > 100 | – | > 100 | – | > 100 | – | –
CC(=O)OC1CCC2C(=CCC3C2(C)C(=O)CC2(C)C(C4(C)OC(C(C)C)=CC4=O)C(O)CC32C)C1(C)C (stereo not drawn) | – | > 100 | – | > 100 | – | > 100 | – | – | – | > 100 | – | – | – | 50.9 | – | > 10 | – | 62.3 | – | –
COc1cc(NC(=O)NCc2ccco2)ccc1-c1ccc(NC(=O)NCc2ccco2)cc1OC | 2.35 | 11.4 | 1.74 | 28.3 | 2.84 | > 100 | – | – | 3.1 | > 100 | 7.97 | > 100 | 3.2 | 38.2 | 2.59 | 16.2 | – | – | 3.34 | 39.9
CC1(C)CC([P+](c2ccccc2)(c2ccccc2)c2ccccc2)=NN1 | 26.6 | > 100 | 5.1 | > 100 | 60.2 | > 100 | 1.03 | 4.42 | 1.44 | 3.36 | 2.79 | > 100 | 11.4 | > 100 | 2.18 | 73.7 | 5.09 | > 100 | – | –
N#Cc1ccc(Oc2cccc(Oc3ccccc3)c2)cc1C#N | > 100 | > 100 | – | > 100 | – | > 100 | – | – | > 100 | > 100 | > 100 | > 100 | > 100 | > 100 | – | > 100 | – | > 100 | – | –
O=C(N/C(=C\c1ccc(/C=C(\NC(=O)c2ccccc2)c2nc3ccccc3s2)cc1)c1nc2ccccc2s1)c1ccccc1 | – | 3.49 | – | 35.2 | – | 16.7 | – | – | – | 16.5 | – | 27.8 | – | 11.9 | – | 12.1 | – | 19.2 | – | –
CC(=O)/C=C1\CC(=O)Nc2ccccc2N1 | – | > 100 | – | > 100 | – | > 100 | – | – | – | – | – | > 100 | – | > 100 | – | – | – | > 100 | – | –
